# Structures can show the parent of a compound that is named as a salt.
row,SMILES,melting point [°C]
1,"Cc1cccc2c(Cl)c3c(C)nn(-c4ccccn4)c3nc12 [Example 2-35, 4-Chloro-3,8-dimethyl-1-(2-pyridinyl)-1H-pyrazolo[3,4-b]quinoline]",170 to 172
2,"CCCN(C)c1c2ccccc2nc2c1c(C)nn2-c1ccccn1 [Example 2-9, N-Methyl-N-[3-methyl-1-(2-pyridinyl)-1H-pyrazolo[3,4-b]quinolin-4-yl]-N-propylamine]",110 to 112
3,"Cc1nn(-c2ccccn2)c2nc3ccccc3c(OCC(C)C)c12 [Example 2-20, 4-Isobutoxy-3-methyl-1-(2-pyridinyl)-1H-pyrazolo[3,4-b]quinoline]",117 to 120
4,"Cc1nn(-c2ccccn2)c2ncc(C(=O)N3CCCCC3)c(O)c12 [Example 1-10, [4-Hydroxy-3-methyl-1-(2-pyridinyl)-1H-pyrazolo[3,4-b]pyridin-5-yl](1-piperidinyl)methanone]",264 to 266
5,"CCOC(=O)c1cnc2c(c(C)nn2-c2ccccn2)c1N [Example 1-31, Ethyl 4-amino-3-methyl-1-(2-pyridinyl)-1H-pyrazolo[3,4-b]pyridine-5-carboxylate]",147 to 149
6,COc1cccc2c(N)c3c(C)nn(-c4ccccn4)c3nc12.Cl,248 to 251
7,"Cc1nn(-c2ccccn2)c2nc3ccccc3c(CC(C)C)c12 [Example 2-105, 4-Isobutyl-3-methyl-1-(2-pyridinyl)-1H-pyrazolo[3,4-b]quinoline]",87 to 88
8,"Cc1nn(-c2ccccn2)c2[nH]c3ccc(F)c(F)c3c(=O)c12 [Example 2-89, 5,6-Difluoro-3-methyl-1-(2-pyridinyl)-1,9-dihydro-4H-pyrazolo[3,4-b]quinolin-4-one]",300 to 303
9,"Cc1nn(-c2ccccn2)c2[nH]c3ccc(N(C)C)cc3c(=O)c12 [Example 2-56, 6-Dimethylamino-3-methyl-1-(2-pyridinyl)-1,9-dihydro-4H-pyrazolo[3,4-b]quinolin-4-one]",171 to 173
10,"Cc1nn(-c2ccccn2)c2nc3cc([N+](=O)[O-])ccc3c(Cl)c12 [Example 2-57, 4-Chloro-3-methyl-7-nitro-1-(2-pyridinyl)-1H-pyrazolo[3,4-b]quinoline]",226 to 227
11,"CCCCCc1c2ccccc2nc2c1c(C)nn2-c1ccccn1 [Example 2-106, 3-Methyl-4-pentyl-1-(2-pyridinyl)-1H-pyrazolo[3,4-b]quinoline]",121 to 122
12,"Cc1nn(-c2ccccn2)c2[nH]c3ccc(N)cc3c(=O)c12 [Example 2-55, 6-Amino-3-methyl-1-(2-pyridinyl)-1,9-dihydro-4H-pyrazolo[3,4-b]quinolin-4-one]",260 to 262
13,"Cc1nn(-c2ccc(Cl)cn2)c2nc3ccccc3c(Cl)c12 [Example 2-113, 4-Chloro-1-(5-chloro-2-pyridinyl)-3-methyl-1H-pyrazolo[3,4-b]quinoline]",216 to 217
14,"Cc1nn(-c2cccc(Cl)n2)c2nc3ccccc3c(Cl)c12 [Example 2-109, 4-Chloro-1-(6-chloro-2-pyridinyl)-3-methyl-1H-pyrazolo[3,4-b]quinoline]",191 to 193
15,"COc1ccc2nc3c(c(C)nn3-c3ccccn3)c(Cl)c2c1 [Example 2-41, 4-Chloro-6-methoxy-3-methyl-1-(2-pyridinyl)-1H-pyrazolo[3,4-b]quinoline]",186 to 187
16,"Cc1nn(-c2ccccn2)c2[nH]c3ccc([N+](=O)[O-])cc3c(=O)c12 [Example 2-54, 3-Methyl-6-nitro-1-(2-pyridinyl)-1,9-dihydro-4H-pyrazolo[3,4-b]quinolin-4-one]",> 300
17,"COC(=O)c1ccc2c(=O)c3c(C)nn(-c4ccccn4)c3[nH]c2c1 [Example 2-67, Methyl 3-methyl-4-oxo-1-(2-pyridinyl)-4,9-dihydro-1H-pyrazolo[3,4-b]quinoline-7-carboxylate]",251 to 252
18,"Cc1cccc2c(=O)c3c(C)nn(-c4ccccn4)c3[nH]c12 [Example 2-38, 3,8-Dimethyl-1-(2-pyridinyl)-1,9-dihydro-4H-pyrazolo[3,4-b]quinolin-4-one]",241 to 243
19,"Cc1nn(-c2ccccn2)c2nccc(OCc3ccccc3)c12 [Example 1-32, 4-(Benzyloxy)-3-methyl-1-(2-pyridinyl)-1H-pyrazolo[3,4-b]pyridine]",108 to 110
20,"CCCCN(C)c1c2ccccc2nc2c1c(C)nn2-c1ccccn1 [Example 2-10, N-Butyl-N-methyl-[3-methyl-1-(2-pyridinyl)-1H-pyrazolo[3,4-b]quinolin-4-yl]amine]",85 to 87
21,"Cc1nn(-c2ccccn2)c2nc3ccccc3c(SC(C)C)c12 [Example 2-25, 4-(Isopropylsulfanyl)-3-methyl-1-(2-pyridinyl)-1H-pyrazolo[3,4-b]quinoline]",113 to 114
22,"Cc1nn(-c2ccccn2)c2nc3ccccc3c(C)c12 [Example 2-101, 3,4-Dimethyl-1-(2-pyridinyl)-1H-pyrazolo[3,4-b]quinoline]",157 to 159
23,"Cc1nn(-c2ccccn2)c2[nH]c3ccccc3c(=O)c12 [Example 1-39, 3-Methyl-1-(2-pyridinyl)-1,9-dihydro-4H-pyrazolo[3,4-b]quinolin-4-one]",199 to 200
24,COc1cc2nc3c(c(C)nn3-c3ccccn3)c(N)c2cc1OC.Cl,277 to 280
25,"Cc1nn(-c2ccccn2)c2ncc(C(=O)Nc3cccc(F)c3)c(O)c12 [Example 1-13, N-(3-Fluorophenyl)-4-hydroxy-3-methyl-1-(2-pyridinyl)-1H-pyrazolo[3,4-b]pyridine-5-carboxamide]",> 300

# Other lines, results leading:
row,melting point [°C],SMILES
1,160 to 161,"Cc1cccnc1-n1nc(C)c2c(Cl)c3ccccc3nc21 [Example 2-118, 4-Chloro-3-methyl-1-(3-methyl-2-pyridinyl)-1H-pyrazolo[3,4-b]quinoline]"
2,144 to 145,"Cc1nn(-c2cccnc2)c2nc3ccccc3c(Cl)c12 [Example 2-136, 4-Chloro-3-methyl-1-(3-pyridinyl)-1H-pyrazolo[3,4-b]quinoline]"
3,255 to 257,"Cc1cccc2c(=O)c3c(C)nn(-c4ccc5ccccc5n4)c3[nH]c12 [Example 2-154, 3,8-Dimethyl-1-(2-quinolinyl)-1,9-dihydro-4H-pyrazolo[3,4-b]quinolin-4-one]"
4,277 to 280,"Cc1nn(Cc2ccncc2)c2[nH]c3ccccc3c(=O)c12 [Example 2-192, 3-Methyl-1-(4-pyridinylmethyl)-1,9-dihydro-4H-pyrazolo[3,4-b]quinolin-4-one]"
5,273 to 276,"Cc1cccc2c(N)c3c(C)nn(-c4ccc5ccccc5n4)c3nc12 [Example 2-153, 3,8-Dimethyl-1-(2-quinolinyl)-1H-pyrazolo[3,4-b]quinolin-4-ylamine]"
6,167 to 168,"Fc1cc2nc3c(cnn3-c3ccccn3)c(Cl)c2cc1F [Example 2-198, 4-Chloro-6,7-difluoro-1-(2-pyridinyl)-1H-pyrazolo[3,4-b]quinoline]"
7,166 to 168,"Cc1nn(Cc2ccccn2)c2nc3ccccc3c(N(C)C)c12 [Example 2-188, N,N-Dimethyl-N-[3-methyl-1-(2-pyridinylmethyl)-1H-pyrazolo[3,4-b]quinolin-4-yl]amine]"
8,> 300,"O=c1c2cc(F)c(F)cc2[nH]c2c1cnn2-c1ccccn1 [Example 2-199, 6,7-Difluoro-1-(2-pyridinyl)-1,9-dihydro-4H-pyrazolo[3,4-b]quinolin-4-one]"
9,237 to 240,"O=c1c2ccccc2[nH]c2c1c(-c1ccccc1)nn2-c1ccccn1 [Example 2-182, 3-Phenyl-1-(2-pyridinyl)-1,9-dihydro-4H-pyrazolo[3,4-b]quinolin-4-one]"
10,263 to 266,"O=c1c2cc(F)ccc2[nH]c2c1cnn2-c1ccccn1 (as salt: salt) [Example 2-165, 6-Fluoro-1-(2-pyridinyl)-1,9-dihydro-4H-pyrazolo[3,4-b]quinolin-4-one]"
11,239 to 241,"CCOc1cccc(-n2nc(C)c3c(=O)c4cccc(C)c4[nH]c32)n1 [Example 2-130, 3,8-Dimethyl-1-(6-ethoxy-2-pyridinyl)-1,9-dihydro-4H-pyrazolo[3,4-b]quinolin-4-one]"
12,166 to 168,"FC(F)(F)c1nn(-c2ccccn2)c2nc3ccccc3c(Cl)c12 [Example 2-166, 4-Chloro-1-(2-pyridinyl)-3-trifluoromethyl-1H-pyrazolo[3,4-b]quinoline]"
13,182 to 185,"Cc1cccnc1-n1nc(C)c2c(Cl)c3cccc(C)c3nc21 [Example 2-133, 4-Chloro-3,8-dimethyl-1-(3-methyl-2-pyridinyl)-1H-pyrazolo[3,4-b]quinoline]"
14,165 to 168,"Cc1ccc(-n2nc(C)c3c(Cl)c4cccc(C)c4nc32)nc1 [Example 2-131, 4-Chloro-3,8-dimethyl-1-(5-methyl-2-pyridinyl)-1H-pyrazolo[3,4-b]quinoline]"
15,165 to 168,"Cc1nn(-c2ccncc2)c2nc3ccccc3c(Cl)c12 [Example 2-140, 4-Chloro-3-methyl-1-(4-pyridinyl)-1H-pyrazolo[3,4-b]quinoline]"
16,195 to 197,"Cc1cccnc1-n1nc(C)c2c(=O)c3c(C)cccc3[nH]c21 [Example 2-125, 3,5-Dimethyl-1-(3-methyl-2-pyridinyl)-1,9-dihydro-4H-pyrazolo[3,4-b]quinolin-4-one]"
17,126 to 128,"COc1c2ccccc2nc2c1c(C)nn2-c1cccnc1 [Example 2-139, 4-Methoxy-3-methyl-1-(3-pyridinyl)-1H-pyrazolo[3,4-b]quinoline]"
18,269 to 272,"Cc1nn(Cc2ccccn2)c2[nH]c3ccccc3c(=O)c12 [Example 2-189, 3-Methyl-1-(2-pyridinylmethyl)-1,9-dihydro-4H-pyrazolo[3,4-b]quinolin-4-one]"
19,262 to 265,"Cc1nn(Cc2ccccn2)c2nc3ccccc3c(N)c12 (as salt: salt) [Example 2-187, 3-Methyl-1-(2-pyridinylmethyl)-1H-pyrazolo[3,4-b]quinolin-4-ylamine]"
20,261 to 263,"Cc1nn(-c2nccs2)c2nc3ccccc3c(N)c12 [Example 2-150, 3-Methyl-1-(1,3-thiazol-2-yl)-1H-pyrazolo[3,4-b]quinolin-4-ylamine]"
